Data published in US11470844B2, “Vespidae wasp repellent” (KINP CO., LTD, priority 2015, dated 2022).

Experiments:
Assay in all cases: Grape juice attraction trap set outside
Assay type in all cases: in vivo
[1] = tested on: Vespa crabro flavofasciata
Method: (§1) The inventors conducted the experiment at four places in Kagawa Prefecture Kinbuchi Forest Park. The experiment was conducted totally 4 times from Oct. 11 to Nov. 4, 2013, from Nov. 4 to Dec. 7, 2013, from Oct. 1 to Oct. 31, 2014, and from Oct. 31 to Dec. 9, 2014.
(§2) First, four 2 cm square holes were opened on the side of a 2 L capacity PET bottle, and 500 mL of grape juice was added thereto to prepare a control attraction trap to kill a Vespidae worker. As Test liquid example, 25 mL, 5 mL or 1 mL of 2-phenylethanol was added to the grape juice of the traps. […] Since all of the test sites were low mountainous and sloping areas and had many trees, each trap had to be suspended from the branch of live trees. As a result, the horizontal distances between a pair of control example trap and test liquid example trap could not be adjusted to the same, and the distance was from 1 m to 8.5 m. There were not only Vespidae worker but also male Vespidae among the killed Vespidae wasps in the attraction traps; however, the results of the control example and test liquid example were compared on the basis of the number of the killed Vespidae worker, since a Vespidae worker causes a stabbing accident and plays an important role in building a nest. In Table 8, “*” indicates the case where there is a significant difference at p<0.01 in the χ^2 test to which the correction of Yates is applied, and “**” indicates the case where there is a significant difference at p<0.001 in the same test. The result of the first experiment in 2013 is shown in Table 9, the result of the second experiment in 2013 is shown in Table 10, the result of the first experiment using 1% 2-phenylethanol in 2014 is shown in Table 11, the result of the second experiment in 2014 is shown in Table 12, the result of the first experiment using 0.1% 2-phenylethanol in 2014 is shown in Table 13, and the result of the second experiment in 2014 is shown in Table 14. In Tables 9 to 14, “*” indicates the case where there is a significant difference at p<0.05 in the t-test, “**” indicates the case where there is a significant difference at p<0.01 in the same test, and “***” indicates the case where there is a significant difference at p<0.001 in the same test.
(§3) In the first experiment and second experiment, the trap prepared by adding 25 mL of 2-phenylethanol to 500 mL of grape juice was used as the test liquid example of 5% 2-phenylethanol.
(§4) In the first experiment and second experiment, 10 traps prepared by adding 5 mL of 2-phenylethanol to 500 mL of grape juice and 10 traps prepared by adding 0.5 mL of 2-phenylethanol to 500 mL of grape juice were used respectively as the 2 kinds of test liquid examples of 1% 2-phenylethanol and 0.1% 2-phenylethanol to conduct the experiment.

[2] = tested on: Vespidae worker, all species
Method: as §1, §2, §3, §4

Vespa analis = tested on: Vespa analis
Method: as §1, §2, §3, §4

Vespa ducalis = tested on: Vespa ducalis
Method: as §1, §2, §3, §4

Vespa mandarinia = tested on: Vespa mandarinia
Method: as §1, §2, §3, §4

[3] = tested on: Vespa simillima xanthoptera
Method: as §1, §2, §3, §4

[4] = 0.1% 2-phenylethanol trap, first experiment 2014, 10 traps
[5] = 0.1% 2-phenylethanol trap, second experiment 2014, 10 traps
[6] = 1% 2-phenylethanol trap, first experiment 2014, 10 traps
[7] = 1% 2-phenylethanol trap, second experiment 2014, 10 traps
[8] = 5% 2-phenylethanol trap, first experiment 2013, 18 traps
[9] = 5% 2-phenylethanol trap, second experiment 2013, 18 traps

OCCc1ccccc1 [2-Phenylethanol, 2-phenylethanol]
Total number of killed worker (Average ± SD), Vespa crabro flavofasciata [1, 4]: (1.50 ± 1.27) | Total number of killed worker, Vespa crabro flavofasciata [1, 4]: 15 | Total number of killed worker (Average ± SD), Vespa crabro flavofasciata [1, 5]: (0.00 ± 0.00) | Total number of killed worker, Vespa crabro flavofasciata [1, 5]: 0 | Total number of killed worker (Average ± SD), Vespa crabro flavofasciata [1, 6]: (0.00 ± 0.00) | Total number of killed worker, Vespa crabro flavofasciata [1, 6]: 0 | Total number of killed worker (Average ± SD), Vespa crabro flavofasciata [1, 7]: (0.00 ± 0.00) | Total number of killed worker, Vespa crabro flavofasciata [1, 7]: 0 | Total number of killed worker (Average ± SD), Vespa crabro flavofasciata [1, 8]: (0.00 ± 0.00) | Total number of killed worker, Vespa crabro flavofasciata [1, 8]: 0 | Total number of killed worker (Average ± SD), Vespa crabro flavofasciata [1, 9]: (0.00 ± 0.00) | Total number of killed worker, Vespa crabro flavofasciata [1, 9]: 0 | Number of effective trap ([2]; 0.1% 2-phenylethanol in grape juice, 2014, 1st experiment, 10 installed traps): 10 | Number of effective trap ([2]; 0.1% 2-phenylethanol in grape juice, 2014, 2nd experiment, 10 installed traps): 1 | Total number of killed worker (Average ± SD), All species [2, 4]: (6.20 ± 6.27) | Total number of killed worker, All species [2, 4]: 62 | Total number of killed worker (Average ± SD), All species [2, 5]: (0.30 ± 0.95) | Total number of killed worker, All species [2, 5]: 3 | Number of effective trap ([2]; 1% 2-phenylethanol in grape juice, 2014, 1st experiment, 10 installed traps): 0 | Number of effective trap ([2]; 1% 2-phenylethanol in grape juice, 2014, 2nd experiment, 10 installed traps): 0 | Total number of killed worker (Average ± SD), All species [2, 6]: (0.00 ± 0.00) | Total number of killed worker, All species [2, 6]: 0 | Total number of killed worker (Average ± SD), All species [2, 7]: (0.00 ± 0.00) | Total number of killed worker, All species [2, 7]: 0 | Number of effective trap ([2]; 5% 2-phenylethanol in grape juice, 2013, 1st experiment, 18 installed traps): 0 | Number of effective trap ([2]; 5% 2-phenylethanol in grape juice, 2013, 2nd experiment, 18 installed traps): 0 | Total number of killed worker (Average ± SD), All species [2, 8]: (0.00 ± 0.00) | Total number of killed worker, All species [2, 8]: 0 | Total number of killed worker (Average ± SD), All species [2, 9]: (0.00 ± 0.00) | Total number of killed worker, All species [2, 9]: 0 | time for which 2-phenylethanol contained in grape juice maintained its effect ([2]; 5% and 1% 2-phenylethanol traps): at least about one month | Total number of killed worker (Average ± SD), Vespa analis (Vespa analis; [4]): (0.60 ± 0.70) | Total number of killed worker, Vespa analis (Vespa analis; [4]): 6 | Total number of killed worker (Average ± SD), Vespa analis (Vespa analis; [5]): (0.00 ± 0.00) | Total number of killed worker, Vespa analis (Vespa analis; [5]): 0 | Total number of killed worker (Average ± SD), Vespa analis (Vespa analis; [6]): (0.00 ± 0.00) | Total number of killed worker, Vespa analis (Vespa analis; [6]): 0 | Total number of killed worker (Average ± SD), Vespa analis (Vespa analis; [7]): (0.00 ± 0.00) | Total number of killed worker, Vespa analis (Vespa analis; [7]): 0 | Total number of killed worker (Average ± SD), Vespa analis (Vespa analis; [8]): (0.00 ± 0.00) | Total number of killed worker, Vespa analis (Vespa analis; [8]): 0 | Total number of killed worker (Average ± SD), Vespa analis (Vespa analis; [9]): (0.00 ± 0.00) | Total number of killed worker, Vespa analis (Vespa analis; [9]): 0 | Total number of killed worker (Average ± SD), Vespa ducalis (Vespa ducalis; [4]): (0.40 ± 0.70) | Total number of killed worker, Vespa ducalis (Vespa ducalis; [4]): 4 | Total number of killed worker (Average ± SD), Vespa ducalis (Vespa ducalis; [5]): (0.00 ± 0.00) | Total number of killed worker, Vespa ducalis (Vespa ducalis; [5]): 0 | Total number of killed worker (Average ± SD), Vespa ducalis (Vespa ducalis; [6]): (0.00 ± 0.00) | Total number of killed worker, Vespa ducalis (Vespa ducalis; [6]): 0 | Total number of killed worker (Average ± SD), Vespa ducalis (Vespa ducalis; [7]): (0.00 ± 0.00) | Total number of killed worker, Vespa ducalis (Vespa ducalis; [7]): 0 | Total number of killed worker (Average ± SD), Vespa ducalis (Vespa ducalis; [8]): (0.00 ± 0.00) | Total number of killed worker, Vespa ducalis (Vespa ducalis; [8]): 0 | Total number of killed worker (Average ± SD), Vespa ducalis (Vespa ducalis; [9]): (0.00 ± 0.00) | Total number of killed worker, Vespa ducalis (Vespa ducalis; [9]): 0 | Total number of killed worker (Average ± SD), Vespa mandarinia (Vespa mandarinia; [4]): (3.60 ± 5.58) | Total number of killed worker, Vespa mandarinia (Vespa mandarinia; [4]): 36 | Total number of killed worker (Average ± SD), Vespa mandarinia (Vespa mandarinia; [5]): (0.30 ± 0.95) | Total number of killed worker, Vespa mandarinia (Vespa mandarinia; [5]): 3 | Total number of killed worker (Average ± SD), Vespa mandarinia (Vespa mandarinia; [6]): (0.00 ± 0.00) | Total number of killed worker, Vespa mandarinia (Vespa mandarinia; [6]): 0 | Total number of killed worker (Average ± SD), Vespa mandarinia (Vespa mandarinia; [7]): (0.00 ± 0.00) | Total number of killed worker, Vespa mandarinia (Vespa mandarinia; [7]): 0 | Total number of killed worker (Average ± SD), Vespa mandarinia (Vespa mandarinia; [8]): (0.00 ± 0.00) | Total number of killed worker, Vespa mandarinia (Vespa mandarinia; [8]): 0 | Total number of killed worker (Average ± SD), Vespa mandarinia (Vespa mandarinia; [9]): (0.00 ± 0.00) | Total number of killed worker, Vespa mandarinia (Vespa mandarinia; [9]): 0 | Total number of killed worker (Average ± SD), Vespa simillima xanthoptera [3, 4]: (0.10 ± 0.32) | Total number of killed worker, Vespa simillima xanthoptera [3, 4]: 1 | Total number of killed worker (Average ± SD), Vespa simillima xanthoptera [3, 5]: (0.00 ± 0.00) | Total number of killed worker, Vespa simillima xanthoptera [3, 5]: 0 | Total number of killed worker (Average ± SD), Vespa simillima xanthoptera [3, 6]: (0.00 ± 0.00) | Total number of killed worker, Vespa simillima xanthoptera [3, 6]: 0 | Total number of killed worker (Average ± SD), Vespa simillima xanthoptera [3, 7]: (0.00 ± 0.00) | Total number of killed worker, Vespa simillima xanthoptera [3, 7]: 0 | Total number of killed worker (Average ± SD), Vespa simillima xanthoptera [3, 8]: (0.00 ± 0.00) | Total number of killed worker, Vespa simillima xanthoptera [3, 8]: 0 | Total number of killed worker (Average ± SD), Vespa simillima xanthoptera [3, 9]: (0.00 ± 0.00) | Total number of killed worker, Vespa simillima xanthoptera [3, 9]: 0
